Legend:
Type in all cases: biochemical
ST3Gal-II [1] = target: T1, ST3Gal-II (Rattus norvegicus, UniProt Q11205); test: Reverse sialylation by ST3Gal-II in presence of citrate or 5′-nucleotides; settings: 0.2 mM [3], 7 mM 5′-CMP, 3.0 mM [5], 4 hours
T1 construct: purchased Calbiochem
T1 sequence (Q11205 1-350): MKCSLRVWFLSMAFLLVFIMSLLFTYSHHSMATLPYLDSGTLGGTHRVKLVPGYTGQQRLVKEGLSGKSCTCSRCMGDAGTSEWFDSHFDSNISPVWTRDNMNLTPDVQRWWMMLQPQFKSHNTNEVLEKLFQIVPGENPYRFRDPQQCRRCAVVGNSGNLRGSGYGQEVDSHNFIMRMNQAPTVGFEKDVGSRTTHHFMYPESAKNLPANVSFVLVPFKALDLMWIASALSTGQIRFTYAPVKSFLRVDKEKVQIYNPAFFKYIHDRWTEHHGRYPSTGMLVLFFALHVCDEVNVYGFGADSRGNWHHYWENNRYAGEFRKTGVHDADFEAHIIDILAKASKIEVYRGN
Method: FIG. 5. Effect of 5′-nucleotides on direct sialyltransferase activity (panel a) and reverse sialylation (panel b). a. Varying concentrations of 5′-CDP or 5′-CMP were added to 100 mM acceptor (specified below), 0.15 mM CMP-[9-^3H]NeuAc and either ST3Gal-II (0.2 mU), ST3Gal-III (0.5 mU) or ST6Gal-I (0.2 mU) for 4 h at 37° C. Products were separated using Sep-Pak C18 method. ST3Gal-III activity was measured using acceptor 4-O-MeGalβ1,4GlcNAcβ-O-Bn in the presence of 5′-CDP (●) and 5′-CMP (◯). ST6Gal-I activity was measured using Gal β1,4GlcNAcβ-O-Bn in the presence of 5′-CDP (▴) and 5′-CMP (Δ). ST3Gal-II using D-Fucβ1,3GalNAcα-O-Bn in the presence of 5′-CDP (▪) and 5′-CMP (□). b) Reverse sialylation by ST3Gal-II was measured in reaction mixtures containing 0.2 mM [9-^3H] [3], 7 mM 5′-CMP, ST3Gal-II (2 mU), D-Fucβ1,3GalNAcα-OBn (3.0 mM) and varying doses of either 5′-CDP (▴), 5′-UMP (◯) or 2-deoxy 5′-CMP (●) for 4 hours at 37° C. Reaction product ([9-^3H]NeuAcα2,3DFucβ1,3 GalNAcα-O-Bn) was isolated using Sep-Pak C18 method. In some runs, where was absent, the amount of CMP-NeuAc produced was quantified using the Dowex-1 Formate method in the presence of varying doses of 5′-CDP (▪).
Besides pH other distinctions were also observed between forward and reverse sialylation. In this regard, citrate ions tended to inhibit forward sialylation but not reverse sialylation activity (Table V). For these studies, the effect of citrate on the forward sialylation activity of ST3Gal-I, ST3Gal-II, ST3Gal-III and ST6Gal-I was examined. Reverse sialylation activity of ST3Gal-II was also measured in terms of: i) the formation of CMP-NeuAc from 5′-CMP; and ii) the transfer of NeuAc from this newly synthesized CMP-NeuAc to another O-glycan. From the data (Table V), it is evident that citrate inhibits the direct sialylation activity of all the enzymes mentioned above. However, both the synthesis of CMP-[9-^3H]NeuAc from 5′-CMP as well as the synthesis of [9-^3H]NeuAcα2,3D-Fucβ1,3 GalNAcα-O-Bn using the newly formed CMP-[9-^3H]NeuAc through reverse sialylation of ST3Gal-II was not inhibited by citrate.
The effect of 5′-nucleotides on forward sialylation (FIG. 5a) and reverse sialylation (FIG. 5b) were examined. […] The overall formation of [9-^3H]NeuAcα2,3D-Fucβ1,3 GalNAcα-O-Bn by the two-step reverse sialylation process, however, was inhibited by 5′-CDP and this is consistent with the finding that 5′-CDP inhibits forward sialylation in the second step.

ST3Gal-II [2] = target: T1, ST3Gal-II; test: Reverse sialylation: transfer of [9-3H]NeuAc from sialylated donor to nucleotide phosphates (WGA-agarose); settings: nucleotide phosphate 1 mM as acceptor, donor [1]
Method: FIG. 1. Nucleotide phosphates as acceptors of radioactivity from [9-^3H]NeuAcα2,3Galβ,13 (GlcNAcβ1,6)GalNAcα-O—Al (Al=Allyl) [[9-^3H] [1]] in the presence of ST3Gal-II (scheme-I). Reaction mixtures (RM) with the following composition were incubated at 37° C. for 21 hours in 100 mM NaCa Codylate buffer, pH6.0: i) RM containing 150 μM (0.4 μCi) [[9-^3H] [1]] (donor) along with 0.8 mU ST3Gal-II but no 5″-CMP; and, ii) RM containing [[9-^3H] [1]] and 1.0 mM 5′-CMP, along with ST3Gal-II. Products formed were fractionated on a WGA-agarose column. […] The feasibility of the reverse reaction is well established in literature. Schematic symbols: ♦:sialic acid, ●:Gal, □:GalNAc, ▪:GlcNAc.
All enzymatic sialylation reactions were typically carried out in 100 mM NaCa Codylate buffer pH6.0 in the presence of enzyme, synthetic acceptor (at 7.5 mM or as indicated in each experiment) and 0.2 μCi CMP-[9-^3H]NeuAc (NEN-Dupont, 29 mCi/μmol). The concentration of total CMP-NeuAc was adjusted in individual reactions by supplementing with additional cold CMP-NeuAc. Reaction volume was 20 μl. Products formed were separated using four different chromatography procedures (below). In all cases, the radioactive content of isolated products was determined by using 3a70 scintillation cocktail (Research Products International, Mount Prospect, Ill.), and a Beckman LS6500 scintillation counter.
(§1) a) Biogel P2 chromatography: A Biogel P2 column (Fine Mesh; 1.0×116.0 cm) was used with 0.1 M pyridine acetate (pH5.4) as the eluent at room temperature. […] Fractions of 1.0 ml were collected. The bound material was then eluted with 0.5M GlcNAc or 0.2M Gal in the same buffer. […] Calculation of equilibrium constant, Keq: Equilibrium constant was calculated for selected reversible bimolecular reactions that are denoted by:
Cloned and purified rat sialyltransferase α2,3(O)ST (ST3Gal-II) is used in many experiments presented in this manuscript. […] In order to determine if the sialylation reaction is reversible (FIG. 1), [9-^3H]NeuAcα2,3Galβ,13(GlcNAcβ1,6)GalNAcα-O—Al (Al=Allyl) [9-^3H[1]] was prepared using ST3Gal-II in the presence of CMP-[9-^3H]NeuAc and the trisaccharide acceptor Galβ1,3(GlcNAcβ1,6)GalNAcα-O—Al, and the radiolabeled product was isolated using Biogel P2 chromatography. […] Two different reaction mixtures were then prepared with: i) [9-^3H[1]] and ST3Gal-II but without 5″-CMP; and ii) [9-^3H[1]] and 5″-CMP along with ST3Gal-II.

ST3Gal-II [3] = target: T1, ST3Gal-II; test: Reverse sialylation equilibrium constant (Keq) and 5′-CMP dose dependence; settings: acceptor 5′-CMP
Method: FIG. 2. Equilibrium constant. a. Reversible sialyltransferase activity at increasing concentration of 5′-CMP. 0.15 mM of donor [9-^3H]NeuAcα2,3Galβ1,3(4-FGlcNAcβ1,6)GalNAcα-O-Bn [9-^3H[2]] was incubated with varying concentrations of 5′-CMP and 0.15 mU ST3Gal-II under conditions described in FIG. 1 for 2 hours. The consumption of the [9-^3H]NeuAc benzyl glycoside donor was measured by subjecting the incubation mixture to Sep-Pak C18 fractionation, which binds the donor and not CMP-[9-^3H]NeuAc. The reaction proceeded to ½ the maximum extent at 80 μM 5′-CMP. b. Equilibrium constant Keq (=0.35) calculated for data in panel a. c. Varying concentrations of 5′-CMP was sialylated with ST3Gal-II (2.0 mU) using either 0.15 mM (panel c) or 1.5 mM (not shown) sialyl donor [9-^3H]NeuAcα2,3Galβ1,3GalNAcβ1,3Galα-O-Me [9-^3H[3]] for 4 hours. The product CMP-[9-^3H]NeuAc and the unused [9-^3H[3]] were separated and quantitated by Dowex-1-Formate method. d. Equilibrium constant, Keq=98.9. Diamonds denote data from 1.5 mM runs while data from 0.15 mM runs are depicted by squares.
as §1
[formula] Here, [9-^3H]D* denotes the radiolabeled donor and D′ is the donor after removal of sialic acid. Similarly, A and [9-^3H]A* denote the acceptor before and after incorporation of NeuAc. In each run, unreacted [9-^3H]D* and product [9-^3H] A* are measured using radioactivity measurements. The equilibrium constant (Keq=kreverse/kforward, dimensionless units) are then determined using the following equation, where terms in square brackets denote concentrations:
[formula] [D0] and [A0] are initial donor and acceptor concentrations. A plot of [D*]/([D0]−[D*]) versus [A*]/([A0]−[A*]) yields Keq from slope data. Keq<1 implies that the forward reaction is favored and the reaction proceeds to the right side to form [9-^3H]A* efficiently. Liquid Chromatography Coupled with Tandem Mass Spectrometry (LC/MS/MS)
Similar results were observed upon increasing concentrations of 5′-CMP when [9-^3H]NeuAcα2,3Galβ1,3(4-FGlcNAcβ1,6) GalNAcα-O-Bn [9-^3H[2]] was donor (FIG. 2a, b). The concentration of 5′-CMP that mediated half-maximal transfer of [9-^3H]NeuAc was 80 μM. The bimolecular equilibrium constant (Keq) for this reaction was 0.35 (dimensionless units, Table I). Indeed, the Keq varied depending on the donor and it was 98.9 when the donor was based on the globo glycolipid, [9-^3H]NeuAcα2,3Galβ1,3GalNAcβ1,3 Gala-O-Me [[9-^3H] [3]] (FIG. 2c, d). Upon comparing and [3], it is apparent that reverse sialylation proceeds more effectively in the case of [2]. To further confirm the above estimates of Keq for core-2 based structures, we also calculated this parameter for our previously published data where [9-^3H]CMP-NeuAc was donor and mucin core-2 tetrasaccharide Galβ1,4GlcNAcβ1,6(Galβ1,3)GalNAcα-O-Bn was acceptor. In this case, Keq measured with respect to the rate of mucin core-2 sialylation was 5.55 (data not shown), which translates to a reverse sialylation Keq of 0.18.

Nc1ccn([C@H]2C[C@H](O)[C@@H](COP(=O)(O)O)O2)c(=O)n1 [2′ deoxy 5′-CMP]
Effect on overall formation of [9-3H]NeuAcα2,3D-Fucβ1,3GalNAcα-O-Bn by two-step reverse sialylation (ST3Gal-II [1]): did not alter the extent of product formation | Incorporation of [9-3H]NeuAc expressed as percent of the CPM incorporated into 5′-CMP (ST3Gal-II [2]): 26.3%

O=c1ccn([C@@H]2O[C@H](COP(=O)(O)O)[C@@H](O)[C@H]2O)c(=O)[nH]1 [5′-UMP]
Effect on overall formation of [9-3H]NeuAcα2,3D-Fucβ1,3GalNAcα-O-Bn by two-step reverse sialylation (ST3Gal-II [1]): did not alter the extent of product formation | Incorporation of [9-3H]NeuAc expressed as percent of the CPM incorporated into 5′-CMP (ST3Gal-II [2]): 55.9%

[9-^3H]NeuAcα2,3Gal(1,3(Gal(1,4GlcNAc(1,6)GalNAc(-O-Bn
Keq (dimensionless units), reverse sialylation equilibrium constant (ST3Gal-II [3]; translated from Keq 5.55 of mucin core-2 sialylation, previously published data): 0.18

[9-^3H]NeuAcα2,3Galβ1,3GalNAcβ1,3Galα-O-Me [[3]]
Keq (dimensionless units), reverse sialylation equilibrium constant (ST3Gal-II [3]; sialylated donor): 98.9

From patent US8278072B1, “Method for synthesis of sialylated products using reversible sialylation” (Health Research, Inc., priority 2007, dated 2012)
